Data: US6911443B2 (Bayer Aktiengesellschaft, priority 2000, dated 2005)

molecular target: T1, human Syk (GST-Syk) (Homo sapiens, UniProt P43405); test: Syk tyrosine kinase inhibitory assay; type: biochemical; details: in vitro; compounds as yielded by solid phase synthesis, purity about 40 to 90%
T1 construct: A cDNA fragment encoding human Syk openreading frame was cloned; made in house; host or cells: Sf21 insect cells (baculovirus, transfer vector pAcG2T)
Description: [Syk Tyrosine Kinase Inhibitory Assay]
(1) Preparation of Syk Protein
A cDNA fragment encoding human Syk openreading frame was cloned from total RNA of human Burkitt's lymphoma B cell lines, Raji (American Type Culture Collection), with the use of RT-PCR method. The cDNA fragment was inserted into pAcG2T (Pharmingen, San Diego, Calif.) to construct a baculovirus transfer vector. Then the vector, together with the linearized baculovirus (BaculoGold™, Pharmingen), was used to transfect Sf21 cells (Invitrogen, San Diego, Calif.).
Generated recombinant baculovirus was cloned and amplified in Sf21 cells. Sf21 cells were infected with this amplified high titer virus to produce a chimeric protein of Syk kinase fused by glutathione-S-transferase (GST).
The resulting GST-Syk was purified with the use of glutathione column (Amersham Pharmacia Biotech AB, Uppsala, Sweden) according to the manufacturer's instruction.
(2) Synthesize of a Peptide
Next, a peptide fragment of 30 residues including two tyrosine residues, […], was synthesized by a peptide synthesizer. The N-terminal of the fragment was then biotinylated to obtain biotinylated activation loop peptide (AL).
(3) The Measurement of Syk Tyrosine Kinase Activity
All reagents were diluted with the Syk kinase assay buffer (50 mM Tris-HCl (pH 8.0), 10 mM MgCl2, 0.1 mM Na3VO4, 0.1% BSA, 1 mM DTT). First, a mixture (35 μl) including […] of GST-Syk and 0.5 μg of AL was put in each well in 96-well plates. Then 5 μl of a test compound in the presence of 2.5% dimethylsulfoxide (DMSO) was added to each well. To this mixture was added […] (10 μl) to initiate the kinase reaction. The final reaction mixture (50 μl) consists of 0.65 nM GST-Syk, 3 μM AL, 30 μM ATP, a test compound, 0.25% DMSO, and a Syk kinase assay buffer.
The mixture was incubated for 1 hr at room temperature, and the reaction was terminated by the addition of 120 μl of termination buffer (50 mM Tris-HCl (pH 8.0), 10 mMEDTA, 500 mM NaCl, 0.1% BSA). The mixture was transferred to streptavidin-coated plates and incubated for 30 min at room temperature to combine biotin-AL to the plates. After washing the plates with Tris-buffered saline (TBS) (50 mM Tris-HCl (pH 8.0), 138 mM NaCl, 2.7 mM KCl) containing 0.05% Tween-20 for 3 times, 100 μl of antibody solution consisting of 50 mM Tris-HCl (pH 8.0), 138 mM NaCl, 2.7 mM KCl, 1% BSA, 60 ng/ml anti-phosphotyrosine monoclonal antibody, 4G10 (Upstate Biotechnology), which is labeled with europium by Amersham Pharmacia's kit in advance, was added and incubated at room temperature for 60 min. After washing, 100 μl of enhancement solution (Amersham pharmacia Biotech) was added and then time-resolved fluorescence was measured by multi-label counter ARVO (Wallac Oy, Finland) at 340 nm for excitation and 615 nm for emission with 400 msec of delay and 400 msec of window.

Row | Activity grade (IC50 class) | SMILES
1 | C-D | COc1ccc(-c2cc3ncnn3c(Nc3ccc4ncccc4c3)n2)cc1OC [Example 9-18]
2 | C-D | COc1ccc(-c2cc3nccn3c(N3CCN(c4ccc(Cl)c(Cl)c4)CC3)n2)cc1OC [Example 9-42]
3 | C-D | COc1ccc(-c2cc3nccn3c(N3CCN(C(c4ccc(F)cc4)c4ccc(F)cc4)CC3)n2)cc1OC [Example 9-45]
4 | C-D | COc1ccc(-c2cc3nccn3c(N3CCN(C4CCCCC4)CC3)n2)cc1OC [Example 9-48]
5 | C-D | COc1ccc(-c2cc3nccn3c(N3CCN(c4ccc(C(F)(F)F)cn4)CC3)n2)cc1OC [Example 9-50]
6 | C-D | COc1ccc(-c2cc3nccn3c(N3CCC(Cc4ccccc4)CC3)n2)cc1OC [Example 9-59]
7 | C-D | COc1ccc(-c2cc3nccn3c(N3CCC(C(=O)c4ccc(F)cc4)CC3)n2)cc1OC [Example 9-61]

same assay, conditions: in vitro; compounds as yielded by solid phase synthesis, purity about 40 to 90%; read-out: Activity grade (IC50 class)

Row | IC50 [nM] | SMILES
8 | 2000 to 10000 | COC(=O)[C@H](Cc1ccc(O)cc1)Nc1nc(-c2ccc(OC)c(OC)c2)cc2nccn12 [Example 9-2]
9 | 2000 to 10000 | COc1ccc(-c2cc3nccn3c(NCCN(C)C)n2)cc1OC [Example 9-3]
10 | 500 to 2000 | COc1ccc(-c2cc3nccn3c(NCC(O)CO)n2)cc1OC (stereo not drawn) [Example 9-4]
11 | 500 to 2000 | COc1ccc(-c2cc3nccn3c(N[C@@H](CO)Cc3ccccc3)n2)cc1OC [Example 9-5]
12 | < 500 | COc1ccc(-c2cc3nccn3c(SC3C=CCCC3)n2)cc1OC (stereo not drawn) [Example 9-6]
13 | < 500 | COc1ccc(-c2cc3nccn3c(SCC3CC3)n2)cc1OC [Example 9-7]
14 | < 500 | C=CCSc1nc(-c2ccc(OC)c(OC)c2)cc2nccn12 [Example 9-8]
15 | < 500 | COc1ccc(-c2cc3nccn3c(SC(C)C)n2)cc1OC [Example 9-9]
16 | 500 to 2000 | COc1ccc(-c2cc3nccn3c(NCc3ccccc3)n2)cc1OC [Example 9-10]
17 | < 500 | CCNc1nc(-c2ccc(OC)c(OC)c2)cc2nccn12 [Example 9-11]
18 | 500 to 2000 | CNc1nc(-c2ccc(OC)c(OC)c2)cc2nccn12 [Example 9-12]
19 | 500 to 2000 | COc1ccc(-c2cc3nccn3c(N3CCc4ccccc43)n2)cc1OC [Example 9-13]
20 | < 500 | COc1ccc(-c2cc3ncnn3c(Nc3cccc(N)n3)n2)cc1OC [Example 9-16]
21 | 2000 to 10000 | COc1ccc(-c2cc3ncnn3c(Nc3ncccc3O)n2)cc1OC [Example 9-17]
22 | < 500 | COc1ccc(-c2cc3ncnn3c(Nc3ccc(/C=C/C(=O)O)cc3)n2)cc1OC [Example 9-19]
23 | < 500 | COc1ccc(-c2cc3ncnn3c(Nc3ccc(CCC(=O)O)cc3)n2)cc1OC [Example 9-20]
24 | < 500 | COc1ccc(-c2cc3nccn3c(Nc3ccc(CCC4=NC(C)(C)CO4)cc3)n2)cc1OC [Example 9-22]
25 | < 500 | CCOC(=O)Cc1ccc(Nc2nc(-c3ccc(OC)c(OC)c3)cc3nccn23)cc1 [Example 9-23]
26 | < 500 | COC(=O)CCc1ccc(Nc2nc(-c3ccc(OC)c(OC)c3)cc3nccn23)cc1 [Example 9-24]
27 | 500 to 2000 | COC(=O)CCCc1ccc(Nc2nc(-c3ccc(OC)c(OC)c3)cc3nccn23)cc1 [Example 9-25]

Row | IC50 [nM] | SMILES
28 | 500 to 2000 | COc1ccc(-c2cc3nccn3c(Nc3ccc(CCN4C(=O)c5ccccc5C4=O)cc3)n2)cc1OC [Example 9-26]
29 | < 500 | COc1ccc(-c2cc3nccn3c(SCc3ccccc3Cl)n2)cc1OC [Example 9-27]
30 | < 500 | CCOC(=O)CCSc1nc(-c2ccc(OC)c(OC)c2)cc2nccn12 [Example 9-28]
31 | < 500 | COc1ccc(-c2cc3nccn3c(N(CCO)Cc3ccccc3)n2)cc1OC [Example 9-29]
32 | 2000 to 10000 | COc1ccc(-c2cc3nccn3c(N3CCOCC3)n2)cc1OC [Example 9-30]
33 | 500 to 2000 | COc1ccc(-c2cc3nccn3c(NC3CCC(C(=O)O)CC3)n2)cc1OC (stereo not drawn) [Example 9-31]
34 | 2000 to 10000 | COc1ccc(-c2cc3nccn3c(N3CCN(Cc4ccc5c(c4)OCO5)CC3)n2)cc1OC [Example 9-32]
35 | 2000 to 10000 | COc1ccc(-c2cc3nccn3c(N3CCN(c4ccccc4)CC3)n2)cc1OC [Example 9-33]
36 | 2000 to 10000 | COc1ccc(-c2cc3nccn3c(N3CCN(c4ccccc4OC)CC3)n2)cc1OC [Example 9-34]
37 | 2000 to 10000 | COc1ccc(-c2cc3nccn3c(N3CCN(c4ccc([N+](=O)[O-])cc4)CC3)n2)cc1OC [Example 9-35]
38 | 2000 to 10000 | COc1ccc(-c2cc3nccn3c(N3CCN(c4ccc(C(C)=O)cc4)CC3)n2)cc1OC [Example 9-36]
39 | 500 to 2000 | COc1ccc(-c2cc3nccn3c(N3CCN(C)CC3)n2)cc1OC [Example 9-37]
40 | 500 to 2000 | COc1ccc(-c2cc3nccn3c(N3CCN(c4ccccn4)CC3)n2)cc1OC [Example 9-38]
41 | 2000 to 10000 | COc1ccc(-c2cc3nccn3c(N3CCN(c4ccc(Cl)cc4)CC3)n2)cc1OC [Example 9-39]
42 | 2000 to 10000 | COc1ccc(N2CCN(c3nc(-c4ccc(OC)c(OC)c4)cc4nccn34)CC2)cc1 [Example 9-40]
43 | 500 to 2000 | COc1ccc(-c2cc3nccn3c(N3CCN(c4ncccn4)CC3)n2)cc1OC [Example 9-41]
44 | 2000 to 10000 | COc1cccc(N2CCN(c3nc(-c4ccc(OC)c(OC)c4)cc4nccn34)CC2)c1 [Example 9-43]
45 | 2000 to 10000 | COc1ccc(-c2cc3nccn3c(N3CCN(c4ccc(C)cc4)CC3)n2)cc1OC [Example 9-44]
46 | 2000 to 10000 | COc1ccc(-c2cc3nccn3c(N3CCN(C(=O)c4ccco4)CC3)n2)cc1OC [Example 9-46]
47 | 2000 to 10000 | COc1ccc(-c2cc3nccn3c(N3CCN(c4ccccc4F)CC3)n2)cc1OC [Example 9-47]

Row | IC50 [nM] | SMILES
48 | 500 to 2000 | COc1ccc(-c2cc3nccn3c(N3CCN(C(C)=O)CC3)n2)cc1OC [Example 9-49]
49 | 2000 to 10000 | COc1ccc(-c2cc3nccn3c(N3CCN(CCO)CC3)n2)cc1OC [Example 9-51]
50 | 500 to 2000 | CCN(Cc1ccncc1)c1nc(-c2ccc(OC)c(OC)c2)cc2nccn12 [Example 9-52]
51 | < 500 | COc1ccc(-c2cc3nccn3c(N(C)CCC(O)c3ccccc3)n2)cc1OC (stereo not drawn) [Example 9-53]
52 | 500 to 2000 | COc1ccc(-c2cc3nccn3c(N3CCCCC3)n2)cc1OC [Example 9-54]
53 | 500 to 2000 | COc1ccc(-c2cc3nccn3c(N3CCCC3)n2)cc1OC [Example 9-55]
54 | 500 to 2000 | CCN(CC)c1nc(-c2ccc(OC)c(OC)c2)cc2nccn12 [Example 9-56]
55 | < 500 | COc1ccc(-c2cc3nccn3c(N3CCC(C(N)=O)CC3)n2)cc1OC [Example 9-57]
56 | 500 to 2000 | COc1ccc(-c2cc3nccn3c(N3CCC(=O)CC3)n2)cc1OC [Example 9-58]
57 | 500 to 2000 | COc1ccc(-c2cc3nccn3c(N3CCC(c4ccc(O)cc4)CC3)n2)cc1OC [Example 9-60]
58 | 2000 to 10000 | COc1ccc(-c2cc3nccn3c(N3CCC(C)CC3)n2)cc1OC [Example 9-62]
59 | 2000 to 10000 | COc1ccc(-c2cc3nccn3c(N3CCC(N4CCCCC4)CC3)n2)cc1OC [Example 9-63]
60 | 2000 to 10000 | COc1ccc(-c2cc3nccn3c(N3CCC(O)(c4ccc(Cl)cc4)CC3)n2)cc1OC [Example 9-64]
61 | 500 to 2000 | COc1ccc(-c2cc3nccn3c(N3CCCC(CO)C3)n2)cc1OC (stereo not drawn) [Example 9-65]
62 | 2000 to 10000 | COc1ccc(-c2cc3nccn3c(N3CCC4(CC3)OCCO4)n2)cc1OC [Example 9-66]
63 | 2000 to 10000 | COC(=O)C1CCN(c2nc(-c3ccc(OC)c(OC)c3)cc3nccn23)CC1 [Example 9-67]
64 | 2000 to 10000 | COc1ccc(-c2cc3nccn3c(N3CCC(C#N)(c4ccccc4)CC3)n2)cc1OC [Example 9-68]
65 | 500 to 2000 | COc1ccc(-c2cc3nccn3c(N3CCC(O)CC3)n2)cc1OC [Example 9-69]
66 | 2000 to 10000 | COc1ccc(-c2cc3nccn3c(N3CC[C@@H](NC(=O)C(F)(F)F)C3)n2)cc1OC [Example 9-70]
